Molecules are shown by their SMILES.

Broadly, the IC50 is the midpoint of a concentration-inhibition curve.

The target in this assay is P70S6K (T412E mutant) (Homo sapiens (Human), UniProt P23443, T412E). In words: P70S6K enzyme assay. The conditions noted are these: 3 nM P70S6K T412E mutant, 24 μM ATP, 1 μM FITC-AHA-AKRRRLSSLRA-OH substrate peptide, 90 min at 25° C. It counts as biochemical. In short, it runs like this: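 P70S6K T412E mutant (3 nM) with 24 μM ATP and 1 μM FITC-labelled S6-derived peptide in Hepes pH 7.5, MgCl2, DTT, Brij buffer; 90 min at 25° C, stopped with EDTA. Phosphorylated product and substrate peptides separated by microfluidic mobility shift; IC50 values derived.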
P70S6K (T412E mutant), sequence (P23443 whole entry T412E): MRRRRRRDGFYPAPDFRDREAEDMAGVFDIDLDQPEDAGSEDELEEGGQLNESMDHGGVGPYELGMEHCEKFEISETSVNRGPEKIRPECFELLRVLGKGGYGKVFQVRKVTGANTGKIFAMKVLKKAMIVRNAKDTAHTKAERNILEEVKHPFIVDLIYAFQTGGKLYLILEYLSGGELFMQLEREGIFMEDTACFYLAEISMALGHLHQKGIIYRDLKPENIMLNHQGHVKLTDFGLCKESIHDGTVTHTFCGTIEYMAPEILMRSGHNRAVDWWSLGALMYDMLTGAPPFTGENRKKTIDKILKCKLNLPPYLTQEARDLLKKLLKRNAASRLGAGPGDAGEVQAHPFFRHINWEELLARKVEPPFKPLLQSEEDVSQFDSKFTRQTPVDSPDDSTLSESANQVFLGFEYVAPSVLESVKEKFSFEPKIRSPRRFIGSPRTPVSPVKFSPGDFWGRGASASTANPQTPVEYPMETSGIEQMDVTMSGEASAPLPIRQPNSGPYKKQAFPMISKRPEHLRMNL
In turn, `NCC(c1ccc(C(F)(F)F)cc1)N1CCN(c2ncnc(N)c2Br)CC1` (centres unmarked) [Example 1, 6-{4-[2-Amino-1-(4-trifluoromethyl-phenyl)-ethyl]-piperazin-1-yl}-5-bromo-pyrimidin-4-ylamine] returned an IC50 of 5.8 nM. In other words, the single-digit nanomolar range.

As for `Nc1ncnc(N2CCN(C(CCN3CCC3)c3ccc(Cl)cc3)CC2)c1-c1ccc(F)cc1` (centres unmarked) [Example 112, 6-{4-[3-Azetidin-1-yl-1-(4-chloro-phenyl)-propyl]-piperazin-1-yl}-5-(4-fluoro-phenyl)-pyrimidin-4-ylamine], the IC50 is 460 nM. This IC50 lies about 79-fold higher than the previous one.

Molecule `N#CC(c1ccc(F)c(Cl)c1)N1CCN(c2ncnc(N)c2-c2ccc(F)cc2)CC1` (centres unmarked) [Example 160, {4-[6-Amino-5-(4-fluoro-phenyl)-pyrimidin-4-yl]-piperazin-1-yl}-(3-chloro-4-fluoro-phenyl)-acetonitrile] displayed an IC50 of 590 nM.

Turning to `C[C@H](NC(=O)C1(N)CCN(c2ncnc(N)c2C(N)=O)CC1)c1ccc(Cl)cc1` [Example 244, 4-Amino-6-{4-amino-4-[(S)-1-(4-chloro-phenyl)-ethylcarbamoyl]-piperidin-1-yl}-pyrimidine-5-carboxylic acid amide], the IC50 was 20000 nM.

The molecule `N#CC(c1ccc(Cl)c(Cl)c1)N1CCN(c2ncnc(N)c2-c2ccc(F)cc2)CC1` (centres unmarked) [Example 156, {4-[6-Amino-5-(4-fluoro-phenyl)-pyrimidin-4-yl]-piperazin-1-yl}-(3,4-dichloro-phenyl)-acetonitrile] came in with an IC50 of 130 nM. Compared with the last molecule, the IC50 is about 150-fold lower.

In the case of `Nc1ncnc(N2CCN(C(CN3CCC3)c3ccc(Cl)c(C(F)(F)F)c3)CC2)c1-c1cn[nH]c1` (centres unmarked) [Example 132, 6-{4-[2-Azetidin-1-yl-1-(4-chloro-3-trifluoromethyl-phenyl)-ethyl]-piperazin-1-yl}-5-(1H-pyrazol-4-yl)-pyrimidin-4-ylamine], half-maximal inhibition (IC50) was put at 1400 nM. This IC50 lies about 11-fold higher than the previous one.

With `NCC(c1ccc(C(F)(F)F)cc1)N1CCN(c2ncnc(N)c2O)CC1` (centres unmarked) [Example 35, 4-amino-6-(4-(2-amino-1-(4-(trifluoromethyl)phenyl)ethyl)piperazin-1-yl) pyrimidin-5-ol], the IC50 is > 1000 nM.

Consider `NCC(c1ccc(C(F)(F)F)cc1)C1CCN(c2ncnc(N)c2Br)CC1` (centres unmarked) [Example 51, 6-{4-[2-Amino-1-(4-trifluoromethyl-phenyl)-ethyl]-piperidin-1-yl}-5-bromo-pyrimidin-4-ylamine], for which the IC50 turned out to be 41 nM. That is a double-digit nanomolar value.

In turn, `COC(=O)c1ccc(C(CN2CCC2)N2CCN(c3ncnc(N)c3-c3ccc(F)cc3)CC2)cc1` (centres unmarked) [Example 96, 4-(1-{4-[6-Amino-5-(4-fluoro-phenyl)-pyrimidin-4-yl]-piperazin-1-yl}-2-azetidin-1-yl-ethyl)-benzoic acid methyl ester] showed an IC50 of 140 nM.

For the molecule `N#CC(c1cccc(C(F)(F)F)c1)N1CCN(c2ncnc(N)c2-c2ccc(F)cc2)CC1` (centres unmarked) [Example 152, {4-[6-Amino-5-(4-fluoro-phenyl)-pyrimidin-4-yl]-piperazin-1-yl}-(3-trifluoromethyl-phenyl)-acetonitrile], the IC50 is > 1000 nM.

The molecule `N#CC(c1ccc(Cl)c(F)c1)N1CCN(c2ncnc(N)c2-c2ccc(F)cc2)CC1` (centres unmarked) [Example 164, {4-[6-Amino-5-(4-fluoro-phenyl)-pyrimidin-4-yl]-piperazin-1-yl}-(4-chloro-3-fluoro-phenyl)-acetonitrile] displayed a half-inhibitory concentration (IC50) of 44 nM. This counts as double-digit nanomolar.

For the molecule `CCOc1c(N)ncnc1N1CCN(C(CN)c2ccc(C(F)(F)F)cc2)CC1` (centres unmarked) [Example 32, 6-(4-(2-amino-1-(4-(trifluoromethyl)phenyl)ethyl)piperazin-1-yl)-5-ethoxypyrimidin-4-amine], the IC50 turned out to be 48.5 nM.

In turn, `N#Cc1c(N)ncnc1N1CCC(N)(C(=O)N[C@@H](CCO)c2ccncc2)CC1` [Example 231, 4-Amino-1-(6-amino-5-cyano-pyrimidin-4-yl)-piperidine-4-carboxylic acid ((S)-3-hydroxy-1-pyridin-4-yl-propyl)-amide] returned an IC50 of 3600 nM.

In turn, `C[C@H](NC(=O)C1(N)CCN(c2ncnc(N)c2-c2cn[nH]c2)CC1)c1ccc(Cl)cc1` [Example 224, 4-Amino-1-[6-amino-5-(1H-pyrazol-4-yl)-pyrimidin-4-yl]-piperidine-4-carboxylic acid [(S)-1-(4-chloro-phenyl)-ethyl]-amide] yielded an IC50 of 87 nM. This IC50 lies about 41-fold lower than the previous one.

`N#Cc1cccc([C@@H](CN2CCC2)N2CCN(c3ncnc(N)c3-c3cn[nH]c3)CC2)c1` [Example 97, 3-((S)-1-{4-[6-Amino-5-(1H-pyrazol-4-yl)-pyrimidin-4-yl]-piperazin-1-yl}-2-azetidin-1-yl-ethyl)-benzonitrile] yielded an IC50 of 3700 nM.

Take `Nc1ncnc(N2CCN(C(CN3CCC3)c3cccc(F)c3)CC2)c1-c1ccc(F)cc1` (centres unmarked) [Example 90, 6-{4-[2-Azetidin-1-yl-1-(3-fluoro-phenyl)-ethyl]-piperazin-1-yl}-5-(4-fluoro-phenyl)-pyrimidin-4-ylamine]: inhibition was half-maximal at 600 nM (IC50).

The molecule `Cc1ccc(C(CN2CCC2)N2CCN(c3ncnc(N)c3-c3cn[nH]c3)CC2)c(F)c1F` (centres unmarked) [Example 100, 6-{4-[2-Azetidin-1-yl-1-(2,3-difluoro-4-methyl-phenyl)-ethyl]-piperazin-1-yl}-5-(1H-pyrazol-4-yl)-pyrimidin-4-ylamine] had an IC50 of 900 nM.

Take `N#Cc1cccc([C@H](CN2CCC2)N2CCN(c3ncnc(N)c3-c3ccc(F)cc3)CC2)c1` [Example 129, 3-((R)-1-{4-[6-Amino-5-(4-fluoro-phenyl)-pyrimidin-4-yl]-piperazin-1-yl}-2-azetidin-1-yl-ethyl)-benzonitrile]: the 50% inhibitory concentration (IC50) was determined as 610 nM.

In turn, `NCC(c1cccc(F)c1)N1CCN(c2ncnc(N)c2-c2ccc(F)cc2)CC1` (centres unmarked) [Example 169, 6-{4-[2-Amino-1-(3-fluoro-phenyl)-ethyl]-piperazin-1-yl}-5-(4-fluoro-phenyl)-pyrimidin-4-ylamine] gave an IC50 of 4.1 nM. This IC50 lies about 150-fold lower than the previous one.

Consider `COc1ccc([C@H](CCO)NC(=O)C2(N)CCN(c3ncnc(N)c3Cl)CC2)cc1` [Example 238, 4-Amino-1-(6-amino-5-chloro-pyrimidin-4-yl)-piperidine-4-carboxylic acid [(S)-3-hydroxy-1-(4-methoxy-phenyl)-propyl]-amide], for which the half-inhibitory concentration (IC50) stood at 380 nM. This IC50 lies about 93-fold higher than the previous one.

In turn, `Nc1ncnc(N2CCC(N)(C(=O)N[C@@H](CCO)c3ccc(Cl)cc3)CC2)c1Cl` [Example 235, 4-Amino-1-(6-amino-5-chloro-pyrimidin-4-yl)-piperidine-4-carboxylic acid [(S)-1-(4-chloro-phenyl)-3-hydroxy-propyl]-amide] returned an IC50 of 250 nM.

On to `CCc1c(N)ncnc1N1CCN([C@H](CN)c2ccc(Cl)cc2)CC1` [Example 179, 6-{4-[(S)-2-Amino-1-(4-chloro-phenyl)-ethyl]-piperazin-1-yl}-5-ethyl-pyrimidin-4-ylamine], for which 13 nM corresponded to half-maximal inhibition (IC50).

For the molecule `N#Cc1c(N)ncnc1N1CCC(N)(CNC(=O)c2ccc(F)cc2F)C1` (centres unmarked) [Example 196, N-[3-Amino-1-(6-amino-5-cyano-pyrimidin-4-yl)-pyrrolidin-3-ylmethyl]-2,4-difluoro-benzamide], inhibition was half-maximal at 50 nM (IC50).

`Nc1ncnc(N2CCC(N)(CNC(=O)c3ccc(F)cc3F)C2)c1-c1ccc(F)cc1` (centres unmarked) [Example 198, N-{3-Amino-1-[6-amino-5-(4-fluoro-phenyl)-pyrimidin-4-yl]-pyrrolidin-3-ylmethyl}-2,4-difluoro-benzamide] returned a half-inhibitory concentration (IC50) of 4.8 nM.

Turning to `NCC(c1ccc(C(F)(F)F)cc1F)N1CCN(c2ncnc(N)c2-c2ccc(F)cc2)CC1` (centres unmarked) [Example 170, 6-{4-[2-Amino-1-(2-fluoro-4-trifluoromethyl-phenyl)-ethyl]-piperazin-1-yl}-5-(4-fluoro-phenyl)-pyrimidin-4-ylamine], the IC50 worked out at 12 nM.

In the case of `CN(C)CC(c1ccc(C(F)(F)F)cc1)N1CCN(c2ncnc(N)c2-c2ccc(C(=O)O)cc2)CC1` (centres unmarked) [Example 26, 4-(4-amino-6-(4-(2-(dimethylamino)-1-(4-(trifluoromethyl)phenyl)ethyl)piperazin-1-yl)pyrimidin-5-yl)benzoic acid], 45 nM corresponded to half-maximal inhibition (IC50).

Turning to `NCC(c1ccc(C(F)(F)F)cc1)N1CCN(c2ncnc(N)c2-c2cc[nH]c2)CC1` (centres unmarked) [Example 37, 6-(4-(2-amino-1-(4-(trifluoromethyl)phenyl)ethyl)piperazin-1-yl)-5-(1H-pyrrol-3-yl)pyrimidin-4-amine], the IC50 was 5.8 nM. This IC50 is about 7.8-fold lower than that of the molecule before.

`NCC(c1ccc(F)cc1)N1CCN(c2ncnc(N)c2-c2ccc(F)cc2)CC1` (centres unmarked) [Example 159, 6-{4-[2-Amino-1-(4-fluoro-phenyl)-ethyl]-piperazin-1-yl}-5-(4-fluoro-phenyl)-pyrimidin-4-ylamine] came in with an IC50 of 4.4 nM. This IC50 and that of the molecule before are within 1.5-fold of each other.

As to `C[C@@H](c1ccccc1)[C@H](CN)N1CCN(c2ncnc(N)c2-c2ccc(F)cc2)CC1` [Example 172, 6-[4-((1R,2S)-1-Aminomethyl-2-phenyl-propyl)-piperazin-1-yl]-5-(4-fluoro-phenyl)-pyrimidin-4-ylamine], the IC50 turned out to be 280 nM.

Molecule `CN(C)CC(c1ccc(C(F)(F)F)cc1)N1CCN(c2ncnc(N)c2-c2ccc(C(C)(C)O)cc2)CC1` (centres unmarked) [Example 22, 2-(4-(4-amino-6-(4-(2-(dimethylamino)-1-(4-(trifluoromethyl)phenyl)ethyl)-piperazin-1-yl)pyrimidin-5-yl)phenyl)propan-2-ol] displayed an IC50 of 20 nM.

The molecule `CN(C)CC(c1ccc(C(F)(F)F)cc1)N1CCN(c2ncnc(N)c2-c2ccc(N)nc2)CC1` (centres unmarked) [Example 20, 5-(6-aminopyridin-3-yl)-6-(4-(2-(dimethylamino)-1-(4-(trifluoromethyl)-phenyl)ethyl)piperazin-1-yl)pyrimidin-4-amine] yielded an IC50 of 69 nM. This IC50 is about 3.5-fold higher than that of the molecule before.

`NCC(c1ccc(C(F)(F)F)cc1)N1CCN(c2ncnc(N)c2-c2cnoc2)CC1` (centres unmarked) [Example 38, 6-(4-(2-amino-1-(4-(trifluoromethyl)phenyl)ethyl)piperazin-1-yl)-5-(isoxazol-4-yl)pyrimidin-4-amine] displayed an IC50 of 100 nM.

These data come from US9321760B2 (Merck Patent GmbH, priority 2011, dated 2016).
